# Reference: patent publication US12600988B2, “Coronavirus pseudovirus packaging system, packaging method therefor, and application of coronavirus pseudovirus in evaluating disinfection efficacy” (priority 2020, dated 2026)
# “Also recorded” adds a separate entry of the source.
# Tested on: COVID-19 pseudovirus
# Parameters: species or system COVID-19 (SARS-CoV-2)
smiles,measurement,value
O=[O+][O-] [ozone],inactivation of COVID-19 pseudovirus,almost completely inactivated; also recorded: complete inactivation
